# According to patent US20070082883A1, “HIV protease inhibitors” (THE BOARD OF TRUSTEES OF THE UNIVERSITY OF ILLINOIS, priority 2002, published 2007):
# Molecular target: T1, HIV-1 protease (Human immunodeficiency virus type 1 group M subtype B, UniProt P04585)
# T1 construct: made in house; host or cells: E. coli BL21 (dE3)pLysS, pET30a vector
# Assay: HIV-1 Protease Inhibition Assay
# Assay type: biochemical
# Details: cells marked (pM) in a column headed nM
# Source text: Assays of the dose-response effect of inhibitor compounds can be described as a curve expressing a degree of inhibition as a function of concentration. The curve theoretically passes through a point at which the concentration is sufficient to reduce activity of the HIV protease enzyme to a level that is 50% that of the difference between minimal and maximal enzyme activity in the assay.
# HIV-1 Protease Inhibition Assay
# The HIV-1 protease gene was subcloned into the pET30a vector (Novagen) and then transformed into BL21 (dE3)pLysS cells for protein expression. Protein expression and purification were followed according to Tang's procedure (Hong et al., Biochemistry, 1996, 35, 10627-10633). […] The inclusion body containing some bacterial proteins was thoroughly washed by using TRITON X-100, solubilized in […] and passed through the Q-sepharose column to remove the bacterial proteins which interfered with subsequent refolding steps. HIV-1 protease was refolded from the urea to an active form by dialysis. As a final step, gel filtration chromatography was used to remove impurities after refolding. Activities of purified HIV-1 protease were examined using a fluorogenic substrate, 2-aminobenzoyl-Thr-Ile-Nle-Phe(pNO2)-Gln-Arg-NH2 (Novabiochem). […] In the condition of So<<Km, v=Eo(kcat/Km)So, where Eo is the total enzyme concentration, and So is the substrate concentrate. […] Assays are carried out as described by Toth and Marshall (Toth et al., Int. J. Pept. Protein Res., 1990, 36, 544-50).
row,Structure (SMILES),IC50
1,Nc1ccc(S(=O)(=O)N(C[C@H]2CCC(=O)N2)C[C@@H](O)[C@H](Cc2ccccc2)NC(=O)OC2CO[C@H]3OCC[C@@H]23)cc1 (stereo partly shown) [Compound 276],20 pM
2,COc1ccc(S(=O)(=O)N(C[C@@H]2CCC(=O)N2)C[C@@H](O)[C@H](Cc2ccccc2)NC(=O)OC2CO[C@H]3OCC[C@@H]23)cc1 (stereo partly shown) [Compound 283],14 pM
3,COc1ccc(S(=O)(=O)N(C[C@H]2CCC(=O)N2)C[C@@H](O)[C@H](Cc2ccccc2)NC(=O)OC2CO[C@H]3OCC[C@@H]23)cc1 (stereo partly shown) [Compound 273],17 pM

# Same assay, conditions: fluorogenic substrate assay
Structure (SMILES),IC50,Ki
CC(C)CN(C[C@@H](O)[C@H](Cc1ccccc1)NC(=O)O[C@H]1CCOC1)S(=O)(=O)c1cncc([N+](=O)[O-])c1 [Compound 169],7100 pM,22 nM
COc1ccc(S(=O)(=O)N(CC(C)C)C[C@@H](O)[C@H](Cc2ccccc2)NC(=O)OC2CC[C@@]3(CCCO3)C2)cc1 (stereo partly shown) [Compound 145c],15000 pM,
C=CCCCCOc1ccccc1COC(=O)N(CCCC=C)C[C@@H](O)[C@H](Cc1ccccc1)NC(=O)O[C@@H]1CC2CCO[C@@H]2C1 (stereo partly shown) [Compound 226],> 2e+06 pM,
CC(C)CN(C[C@@H](O)[C@H](Cc1ccccc1)NC(=O)OC1CC2CCO[C@@H]2C1)S(=O)(=O)c1cccc(CO)c1 (stereo partly shown) [Compound 113],4000 pM,
Cc1ccc(S(=O)(=O)N(CC(C)C)C[C@@H](O)[C@H](CC2CCN(C(=O)c3ccccc3)CC2)NC(=O)O[C@H]2CCOC2)cc1 [Compound 147],60000 pM,
COc1ccc(S(=O)(=O)N(C[C@@H](O)[C@H](Cc2ccccc2)NC(=O)O[C@H]2CO[C@H]3OCCC32)C2CN(C(=O)OC(C)(C)C)C2)cc1 (stereo partly shown) [Compound 200],7600 pM,2.3 nM
CC(C)(C)NC(=O)[C@@H]1C[C@@H]2CCCC[C@@H]2CN1C[C@@H](O)[C@H](Cc1ccccc1)NC(=O)OC1CC[C@@]2(CCCO2)C1 (stereo partly shown) [Compound 145b],> 2e+06 pM,
Cc1ccc(S(=O)(=O)N(CC(C)C)C[C@@H](O)[C@H](CC2CCN(C(=O)c3ccccc3)CC2)NC(=O)OC2CCCC23CCCO3)cc1 (stereo partly shown) [Compound 148],185000 pM,
CC(C)CN(C[C@@H](O)[C@H](Cc1ccccc1)NC(=O)O[C@@H]1CCOC1)[C@H]1CCNC1=O [Compound 248],,730 nM
CC(C)CN(C[C@@H](O)[C@H](Cc1ccccc1)NC(=O)OC1CO[C@H]2OCCC12)S(=O)(=O)c1ccc(Cl)c(O)c1 (stereo partly shown) [Compound 151],3100 pM,1 nM
"CC(C)(C)OC(=O)N[C@@H](Cc1ccccc1)[C@H](O)CN(C[C@H]1CCC(=O)N1)S(=O)(=O)c1ccc([N+](=O)[O-])cc1 [Compound 307a, {(1S)-Benzyl-(2R)-hydroxy-3-[(4-nitrobenzenesulfonyl)-(5-oxopyrrolidin-(2R)-ylmethyl)amino]propyl}-carbamic acid tert-butyl ester]",7000 pM,
CC(C)CN(C[C@@H](O)[C@H](Cc1ccccc1)NC(=O)O[C@H]1CCOC1)S(=O)(=O)c1cncc(N)c1 [Compound 170],2400 pM,0.74 nM
O=C(N[C@@H](Cc1ccccc1)[C@H](O)CN1CCCCCCCOc2cccc(c2)S1(=O)=O)O[C@@H]1CC2CCO[C@@H]2C1 (stereo partly shown) [Compound 225h],6800 pM,2.1 nM
CC(C)CN(C[C@@H](O)[C@H](Cc1ccccc1)NC(=O)OC1CC2CCO[C@@H]2C1)S(=O)(=O)c1cc(O)cc(O)c1 (stereo partly shown) [Compound 100],247000 pM,77 nM
CC(C)CN(C[C@@H](O)[C@H](Cc1ccccc1)NC(=O)OC1CC2CCO[C@@H]2C1)S(=O)(=O)c1ccc(CN(C)C)cc1 (stereo partly shown) [Compound 127],50000 pM,
COc1ccc(S(=O)(=O)NN(CC(C)C)C[C@@H](O)[C@H](Cc2ccccc2)NC(=O)O[C@@H]2CC3CCO[C@@H]3C2)cc1 (stereo partly shown) [Compound 186],10000 pM,3.2 nM
CC(C)CN(C[C@@H](O)[C@H](Cc1ccccc1)NC(=O)OC1CC2CCO[C@@H]2C1)S(=O)(=O)c1cc(OC2CCCCO2)cc(OC2CCCCO2)c1 (stereo partly shown) [Compound 99],3900 pM,1.2 nM
O=C(N[C@@H](Cc1ccccc1)[C@H](O)CN1CCC/C=C\CCCCOc2ccccc2COC1=O)O[C@@H]1CC2CCO[C@@H]2C1 (stereo partly shown) [Compound 227],495000 pM,154 nM
C=CCCCCN(C[C@@H](O)[C@H](Cc1ccccc1)NC(=O)O[C@H]1CO[C@H]2OCCC21)S(=O)(=O)c1cccc(OCCCC=C)c1 (stereo partly shown) [Compound 225],8100 pM,2.5 nM
O=C(N[C@@H](Cc1ccccc1)[C@H](O)CN1CCCCCCCOc2cccc(c2)S1(=O)=O)O[C@H]1CO[C@H]2OCCC21 (stereo partly shown) [Compound 231],8600 pM,2.7 nM
CC(C)CN(C[C@@H](O)[C@H](Cc1ccccc1)NC(=O)OC(C)(C)C)S(=O)(=O)c1cncc([N+](=O)[O-])c1 [Compound 163],115000 pM,36 nM
Cc1ccc(S(=O)(=O)N(CC(C)C)C[C@@H](O)[C@H](CC2CCN(Cc3ccccc3)CC2)NC(=O)O[C@H]2CCOC2)cc1 [Compound 150],540000 pM,
CC(C)(C)OC(=O)N[C@@H](Cc1ccccc1)[C@H](O)CN(C[C@@H]1CCC(=O)N1)S(=O)(=O)c1ccc([N+](=O)[O-])cc1 [Compound 307b],12000 pM,

Structure (SMILES),IC50,Ki
CC(C)CN(C[C@@H](O)[C@H](Cc1ccccc1)NC(=O)O[C@@H]1CC2CCO[C@@H]2C1)S(=O)(=O)c1ccc(/C=N/O)cc1 (stereo partly shown) [Compound 256],1700 pM,
CC(C)CN(C[C@@H](O)[C@H](Cc1ccccc1)NC(=O)OC1CC2CCO[C@@H]2C1)S(=O)(=O)c1ccc(CN)cc1 (stereo partly shown) [Compound 125],3500 pM,1.1 nM
CC(C)CN(C[C@@H](O)[C@H](Cc1ccccc1)NC(=O)OC1CCCC12CCCO2)S(=O)(=O)c1cccc(O)c1 (stereo partly shown) [Compound 75],6700 pM,2.1 nM
CC(C)CN(C[C@@H](O)[C@H](Cc1ccccc1)NC(=O)O[C@H]1CCOC1)S(=O)(=O)c1ccc(F)c(N)c1 [Compound 182],4600 pM,1.4 nM
CC(C)CN(C[C@@H](O)[C@H](Cc1ccccc1)NC(=O)O[C@@H]1CC2CCO[C@@H]2C1)S(=O)(=O)c1cccc(/C=N/O)c1 (stereo partly shown) [Compound 257],2900 pM,
Cc1cc(S(=O)(=O)N(CC(C)C)C[C@@H](O)[C@H](Cc2ccccc2)NC(=O)O[C@@H]2CC3CCO[C@@H]3C2)ccc1CO (stereo partly shown) [Compound 259],2800 pM,
COc1ccc(S(=O)(=O)N(C[C@@H]2CCC(=O)N2)C[C@@H](O)[C@H](Cc2ccccc2)NC(=O)OC(C)(C)C)cc1 [Compound 272],3420 pM,
O=C(N[C@@H](Cc1ccccc1)[C@H](O)CN1CCCCCCCCCOc2cccc(c2)S1(=O)=O)O[C@H]1CO[C@H]2OCCC21 (stereo partly shown) [Compound 225b],7800 pM,2.4 nM
CC(C)CN(C[C@@H](O)[C@H](Cc1ccccc1)NC(=O)O[C@H]1C[C@H]2CCO[C@H]2C1)S(=O)(=O)c1cncc(N)c1 [Compound 172],5100 pM,1.6 nM
CC(C)CN(C[C@@H](O)[C@H](Cc1ccccc1)NC(=O)O[C@H]1CCOC1)S(=O)(=O)c1ccc(CN2CCOCC2)cc1 [Compound 139],968000 pM,
CC(C)CN(C[C@@H](O)[C@H](Cc1ccccc1)NC(=O)OC1CO[C@H]2OCCC12)S(=O)(=O)c1ccc(/C=C/CO)cc1 (stereo partly shown) [Compound 121],3000 pM,
COc1ccc(S(=O)(=O)N(CC(C)C)CC(O)C(Cc2ccc(OCc3ccccc3)cc2)NC(=O)OC(C)(C)C)cc1 (stereo not shown) [Compound 210],13000 pM,4.1 nM
C=CCCCCN(C[C@@H](O)[C@H](Cc1ccccc1)NC(=O)O[C@@H]1CC2CCO[C@@H]2C1)S(=O)(=O)c1cccc(C(O)CC=C)c1 (stereo partly shown) [Compound 237],10000 pM,3.1 nM
Cc1ccc(S(=O)(=O)N(CCN(C)C)C[C@@H](O)[C@H](Cc2ccccc2)NC(=O)O[C@H]2C[C@H]3CCO[C@H]3C2)cc1CO [Compound 159],204000 pM,63 nM
CC(C)CN(C[C@@H](O)[C@H](Cc1ccccc1)NC(=O)OC(C)(C)C)C1CC2(CCCC2)NC1=O (stereo partly shown) [Compound 528b],386000 pM,
CC(C)CN(C[C@@H](O)[C@H](Cc1ccccc1)NC(=O)OC1CC2CCO[C@@H]2C1)S(=O)(=O)c1ccc(Cl)c(O)c1 (stereo partly shown) [Compound 152],5200 pM,1.8 nM
CC(C)CN(C[C@@H](O)[C@H](Cc1ccccc1)NC(=O)OC1CC2CCO[C@@H]2C1)S(=O)(=O)c1ccc(OC2CCCCO2)c(OC2CCCCO2)c1 (stereo partly shown) [Compound 87],30000 pM,9.3 nM
CC(C)CN(C[C@@H](O)[C@H](Cc1ccccc1)NC(=O)O[C@H]1CO[C@H]2OCC[C@H]21)[C@@H]1C(=O)Nc2ccccc21 [Compound 250],,1 nM
COc1ccc(S(=O)(=O)N(CC(C)C)C[C@@H](O)[C@H](Cc2ccc(OCc3ccccc3)cc2)NC(=O)OC(C)(C)C)cc1 [Compound 207],96000 pM,30 nM
Cc1ccc(S(=O)(=O)N(CC(C)C)C[C@@H](O)[C@H](Cc2ccccc2)NC(=O)OC2CC3CCO[C@@H]3C2)cc1CO (stereo partly shown) [Compound 157],2800 pM,0.87 nM
CNCc1ccc(S(=O)(=O)N(CC(C)C)C[C@@H](O)[C@H](Cc2ccccc2)NC(=O)OC2CC3CCO[C@@H]3C2)cc1 (stereo partly shown) [Compound 126],15000 pM,
CC(C)CN(C[C@@H](O)[C@H](Cc1ccccc1)NC(=O)OC(C)(C)C)S(=O)(=O)c1cncc(N)c1 [Compound 164],33000 pM,10 nM
